# Measurements: article PMC7525662, “Preclinical dosimetry models and the prediction of clinical doses of novel positron emission tomography radiotracers” (Scientific Reports, 2020)
# Marks after values point to notes of the source that are not given here.
# Assays:
# Design in all cases: species or system Sprague–Dawley rats
# Details in all cases: rat, in vivo
# [1] = OLINDA/EXM predicted clinical doses: adult male phantom, non-normalised τ, FBP
# Experimental: (§1) PET studies were reconstructed using filtered-back projection (FBP) and Mediso’s iterative Tera-Tomo 3D reconstruction algorithm with the following settings: 4 iterations, 6 subsets, full detector model, normal regularization, spike filter on, voxel size 0.4 mm and 400‒600 keV energy window. PET data were corrected for randoms, scatter and attenuation. Time-activity curves for each source organ, whole-body and remainder of the body were plotted. […] Residence times (τ) were determined for each radiotracer in source organs, whole-body and remaining (any activity assigned to the whole-body but not assigned to a source organ). Each preclinical source organ’s τ was determined by calculating the area under its respective time-activity curve (activity normalised to the percentage maximum injected dose as a function of time) using the trapezoid method. […] From each individual animal, eight dosimetry models were constructed from all possible combinations of image reconstruction method (FBP or iterative), τ (non-normalised or normalised to human organ masses), and sex of phantom (male or female).
# [2] = OLINDA/EXM predicted clinical doses: adult female phantom, non-normalised τ, FBP
# Experimental: as §1, with “female). Supplementary table 6. Predicted clinical absorbed organ doses and whole-body effective doses of PET radiotracers using non-normalised (preclinical) adult female source organ residence times from filtered backprojection reconstructions.” for “female).”
# [3] = OLINDA/EXM predicted clinical doses: adult female phantom, normalised τ, iterative
# Experimental: as §1, with “female). Supplementary table 12. Predicted clinical absorbed organ doses and whole-body effective doses of PET radiotracers using normalised adult female source organ residence times from iterative reconstructions.” for “female).”
smiles,measurement,setting,value
"O=C[C@H]([18F])[C@@H](O)[C@H](O)[C@H](O)CO [FDG, 2-deoxy-2-[^18F]fluoro-D-glucose]","Effective Dose (mSv/MBq), Average",[1],5.79E-02 mSv/MBq
same,"Estimated Absorbed Dose of Organ, Average: Adrenals",[1],1.22E-02 mGy/MBq
same,"Estimated Absorbed Dose of Organ, Average: Brain",[1],4.36E-03 mGy/MBq
same,"Estimated Absorbed Dose of Organ, Average: Breasts",[1],8.62E-03 mGy/MBq
same,"Estimated Absorbed Dose of Organ, Average: Gallbladder Wall",[1],1.32E-02 mGy/MBq
same,"Estimated Absorbed Dose of Organ, Average: Heart Wall",[1],1.51E-02 mGy/MBq
same,"Estimated Absorbed Dose of Organ, Average: Kidneys",[1],2.01E-02§ mGy/MBq
same,"Estimated Absorbed Dose of Organ, Average: LLI Wall",[1],2.39E-01† mGy/MBq
same,"Estimated Absorbed Dose of Organ, Average: Liver",[1],8.09E-03 mGy/MBq
same,"Estimated Absorbed Dose of Organ, Average: Lungs",[1],8.07E-03 mGy/MBq
same,"Estimated Absorbed Dose of Organ, Average: Muscle",[1],1.35E-02 mGy/MBq
same,"Estimated Absorbed Dose of Organ, Average: Osteogenic Cells",[1],1.76E-02 mGy/MBq
same,"Estimated Absorbed Dose of Organ, Average: Pancreas",[1],1.32E-02 mGy/MBq
same,"Estimated Absorbed Dose of Organ, Average: Red Marrow",[1],1.32E-02 mGy/MBq
same,"Estimated Absorbed Dose of Organ, Average: Skin",[1],9.20E-03 mGy/MBq
same,"Estimated Absorbed Dose of Organ, Average: Small Intestine",[1],2.21E-02 mGy/MBq
same,"Estimated Absorbed Dose of Organ, Average: Spleen",[1],1.23E-02 mGy/MBq
same,"Estimated Absorbed Dose of Organ, Average: Stomach Wall",[1],1.34E-02 mGy/MBq
same,"Estimated Absorbed Dose of Organ, Average: Testes",[1],1.76E-02 mGy/MBq
same,"Estimated Absorbed Dose of Organ, Average: Thymus",[1],1.07E-02 mGy/MBq
same,"Estimated Absorbed Dose of Organ, Average: Thyroid",[1],1.05E-02 mGy/MBq
same,"Estimated Absorbed Dose of Organ, Average: Total Body",[1],1.38E-02 mGy/MBq
same,"Estimated Absorbed Dose of Organ, Average: ULI Wall",[1],1.76E-02 mGy/MBq
same,"Estimated Absorbed Dose of Organ, Average: Urinary Bladder Wall",[1],3.23E-01‡ mGy/MBq
same,"Effective Dose (mSv/MBq), Average ± SD",[2],7.08E-02 mSv/MBq
same,"Estimated Absorbed Dose of Organ, Average: Adrenals",[2],1.56E-02 mGy/MBq
same,"Estimated Absorbed Dose of Organ, Average: Brain",[2],5.39E-03 mGy/MBq
same,"Estimated Absorbed Dose of Organ, Average: Breasts",[2],1.10E-02 mGy/MBq
same,"Estimated Absorbed Dose of Organ, Average: Gallbladder Wall",[2],1.59E-02 mGy/MBq
same,"Estimated Absorbed Dose of Organ, Average: Heart Wall",[2],1.95E-02 mGy/MBq
same,"Estimated Absorbed Dose of Organ, Average: Kidneys",[2],2.28E-02 § mGy/MBq
same,"Estimated Absorbed Dose of Organ, Average: LLI Wall",[2],2.63E-01 † mGy/MBq
same,"Estimated Absorbed Dose of Organ, Average: Liver",[2],1.05E-02 mGy/MBq
same,"Estimated Absorbed Dose of Organ, Average: Lungs",[2],1.03E-02 mGy/MBq
same,"Estimated Absorbed Dose of Organ, Average: Muscle",[2],1.67E-02 mGy/MBq
same,"Estimated Absorbed Dose of Organ, Average: Osteogenic Cells",[2],2.29E-02 mGy/MBq
same,"Estimated Absorbed Dose of Organ, Average: Ovaries",[2],4.29E-02 mGy/MBq
same,"Estimated Absorbed Dose of Organ, Average: Pancreas",[2],1.65E-02 mGy/MBq
same,"Estimated Absorbed Dose of Organ, Average: Red Marrow",[2],1.64E-02 mGy/MBq
same,"Estimated Absorbed Dose of Organ, Average: Skin",[2],1.14E-02 mGy/MBq
same,"Estimated Absorbed Dose of Organ, Average: Small Intestine",[2],2.68E-02 mGy/MBq
same,"Estimated Absorbed Dose of Organ, Average: Spleen",[2],1.55E-02 mGy/MBq
same,"Estimated Absorbed Dose of Organ, Average: Stomach Wall",[2],1.66E-02 mGy/MBq
same,"Estimated Absorbed Dose of Organ, Average: Thymus",[2],1.38E-02 mGy/MBq
same,"Estimated Absorbed Dose of Organ, Average: Thyroid",[2],1.24E-02 mGy/MBq
same,"Estimated Absorbed Dose of Organ, Average: Total Body",[2],1.72E-02 mGy/MBq
same,"Estimated Absorbed Dose of Organ, Average: ULI Wall",[2],2.24E-02 mGy/MBq
same,"Estimated Absorbed Dose of Organ, Average: Urinary Bladder Wall",[2],4.48E-01 ‡ mGy/MBq
same,"Estimated Absorbed Dose of Organ, Average: Uterus",[2],4.34E-02 mGy/MBq
same,Effective Dose,[3],1.15E-02 mSv/MBq
same,"Estimated Absorbed Dose of Organ, Brain",[3],1.19E-02 mGy/MBq
same,"Estimated Absorbed Dose of Organ, Breasts",[3],1.84E-02 mGy/MBq
same,"Estimated Absorbed Dose of Organ, Gallbladder Wall",[3],8.62E-03 mGy/MBq
same,"Estimated Absorbed Dose of Organ, Heart Wall",[3],1.28E-02 mGy/MBq
same,"Estimated Absorbed Dose of Organ, Kidneys",[3],9.59E-02 ‡ mGy/MBq
same,"Estimated Absorbed Dose of Organ, LLI Wall",[3],1.11E-02 mGy/MBq
same,"Estimated Absorbed Dose of Organ, Liver",[3],2.72E-02 mGy/MBq
same,"Estimated Absorbed Dose of Organ, Lungs",[3],1.15E-02 mGy/MBq
same,"Estimated Absorbed Dose of Organ, Muscle",[3],1.79E-02 mGy/MBq
same,"Estimated Absorbed Dose of Organ, Osteogenic Cells",[3],1.02E-02 mGy/MBq
same,"Estimated Absorbed Dose of Organ, Ovaries",[3],1.03E-02 mGy/MBq
same,"Estimated Absorbed Dose of Organ, Pancreas",[3],1.95E-02 mGy/MBq
same,"Estimated Absorbed Dose of Organ, Red Marrow",[3],1.23E-02 mGy/MBq
same,"Estimated Absorbed Dose of Organ, Skin",[3],1.51E-02 mGy/MBq
same,"Estimated Absorbed Dose of Organ, Small Intestine",[3],8.33E-02 § mGy/MBq
same,"Estimated Absorbed Dose of Organ, Spleen",[3],7.40E-03 mGy/MBq
same,"Estimated Absorbed Dose of Organ, Stomach Wall",[3],1.38E-02 mGy/MBq
same,"Estimated Absorbed Dose of Organ, Thymus",[3],1.10E-02 mGy/MBq
same,"Estimated Absorbed Dose of Organ, Thyroid",[3],1.16E-02 mGy/MBq
same,"Estimated Absorbed Dose of Organ, ULI Wall",[3],1.15E-02 mGy/MBq
same,"Estimated Absorbed Dose of Organ, Urinary Bladder Wall",[3],8.48E-03 mGy/MBq
same,"Estimated Absorbed Dose of Organ, Uterus",[3],1.93E-01 † mGy/MBq
same,"Estimated Absorbed Dose, Total Body",[3],2.12E-02 mGy/MBq
